What was measured:
Assay in all cases: Post-emergent Test III, herbicidal activity in wheat and barley
Format in all cases: in vivo
[1] = test system: VIOSS: wild pansy (Viola tricolor), field violet (Viola arvensis); settings: 21 days after application; for pest or weed control at 35 g/ha / pest or weed control at 70 g/ha: Viola tricolor, post-emergence, 504 h, read-out: Visual Gorowth Reduction (%) 21 days After Application VIOSS; for pest or weed control at 35 g/ha: 35 g ai/ha; for pest or weed control at 70 g/ha: 70 g ai/ha; for GR50 VIOSS / GR80 VIOSS: probit analysis; for GR50 VIOSS: dose for 50 percent growth reduction; for GR80 VIOSS: dose for 80 percent growth reduction
In short: (§1)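 GR20, GR50, GR80 and GR90 come from probit analysis of visual injury scores (0 = none, 100 = complete kill) taken 21 d after treatment. Foliar application was by track sprayer delivering 187 L/ha at five rates, from high down to 1/16×, onto greenhouse plants at the 2–3 leaf stage, with solvent-blank controls.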

[2] = test system: KCHSC: kochia (Kochia scoparia); settings: 21 days after application; for pest or weed control at 35 g/ha / pest or weed control at 70 g/ha: Bassia scoparia, post-emergence, 504 h, read-out: Visual Gorowth Reduction (%) 21 days After Application KCHSC; for pest or weed control at 35 g/ha: 35 g ai/ha; for pest or weed control at 70 g/ha: 70 g ai/ha; for GR50 KCHSC / GR80 KCHSC: probit analysis; for GR50 KCHSC: dose for 50 percent growth reduction; for GR80 KCHSC: dose for 80 percent growth reduction
In short: as §1

[3] = test system: HORSS: barley, including spring and winter (Hordeum vulgare); settings: 21 days after application; for pest or weed control at 35 g/ha / pest or weed control at 70 g/ha: Hordeum vulgare, post-emergence, 504 h, read-out: Visual Gorowth Reduction (%) 21 days After Application HORSS; for pest or weed control at 35 g/ha: 35 g ai/ha; for pest or weed control at 70 g/ha: 70 g ai/ha; for GR20 HORSS: probit analysis, dose for 20 percent growth reduction (crop)
In short: as §1

[4] = test system: MATSS: scented mayweed (Matricaria chamomilla), pineappleweed (Matricaria matricarioides); settings: 21 days after application; for pest or weed control at 35 g/ha / pest or weed control at 70 g/ha: Matricaria chamomilla, post-emergence, 504 h, read-out: Visual Gorowth Reduction (%) 21 days After Application MATSS; for pest or weed control at 35 g/ha: 35 g ai/ha; for pest or weed control at 70 g/ha: 70 g ai/ha; for GR50 MATSS / GR80 MATSS: probit analysis; for GR50 MATSS: dose for 50 percent growth reduction; for GR80 MATSS: dose for 80 percent growth reduction
In short: as §1

[5] = test system: TRZSS: wheat, including spring and winter (Triticum aestivum); settings: 21 days after application; for pest or weed control at 35 g/ha / pest or weed control at 70 g/ha: Triticum aestivum, post-emergence, 504 h, read-out: Visual Gorowth Reduction (%) 21 days After Application TRZSS; for pest or weed control at 35 g/ha: 35 g ai/ha; for pest or weed control at 70 g/ha: 70 g ai/ha; for GR20 TRZSS: probit analysis, dose for 20 percent growth reduction (crop)
In short: as §1

[6] = test system: SASKR: Russian thistle (Salsola iberica); settings: 21 days after application; for pest or weed control at 35 g/ha / pest or weed control at 70 g/ha: Salsola tragus, post-emergence, 504 h, read-out: Visual Gorowth Reduction (%) 21 days After Application SASKR; for pest or weed control at 35 g/ha: 35 g ai/ha; for pest or weed control at 70 g/ha: 70 g ai/ha; for GR50 SASKR / GR80 SASKR: probit analysis; for GR50 SASKR: dose for 50 percent growth reduction; for GR80 SASKR: dose for 80 percent growth reduction
In short: as §1

[7] = test system: VERPE: bird's-eye speedwell (veronica persica); settings: 21 days after application; for pest or weed control at 35 g/ha / pest or weed control at 70 g/ha: Veronica persica, post-emergence, 504 h, read-out: Visual Gorowth Reduction (%) 21 days After Application VERPE; for pest or weed control at 35 g/ha: 35 g ai/ha; for pest or weed control at 70 g/ha: 70 g ai/ha; for GR50 VERPE / GR80 VERPE: probit analysis; for GR50 VERPE: dose for 50 percent growth reduction; for GR80 VERPE: dose for 80 percent growth reduction
In short: as §1

COc1c(N)nc(-c2ccc(I)c(F)c2F)nc1C(=O)O [Compound 89]
pest or weed control at 35 g/ha [1]: 95 to 100%
pest or weed control at 70 g/ha [1]: 95 to 100%
GR50 VIOSS [1]: 11 g ai/ha
GR80 VIOSS [1]: 19 g ai/ha
pest or weed control at 35 g/ha [2]: 85 to 94%
pest or weed control at 70 g/ha [2]: 85 to 94%
GR50 KCHSC [2]: 12 g ai/ha
GR80 KCHSC [2]: 25 g ai/ha
pest or weed control at 35 g/ha [3]: 60 to 74%
pest or weed control at 70 g/ha [3]: 60 to 74%
GR20 HORSS [3]: 3 g ai/ha
pest or weed control at 35 g/ha [4]: 75 to 84%
pest or weed control at 70 g/ha [4]: 85 to 94%
GR50 MATSS [4]: 14 g ai/ha
GR80 MATSS [4]: 36 g ai/ha
pest or weed control at 35 g/ha [5]: 75 to 84%
pest or weed control at 70 g/ha [5]: 85 to 94%
GR20 TRZSS [5]: 1 g ai/ha
pest or weed control at 35 g/ha [6]: 85 to 94%
pest or weed control at 70 g/ha [6]: 85 to 94%
GR50 SASKR [6]: 9 g ai/ha
GR80 SASKR [6]: 21 g ai/ha
pest or weed control at 35 g/ha [7]: 95 to 100%
pest or weed control at 70 g/ha [7]: 95 to 100%
GR50 VERPE [7]: 3 g ai/ha
GR80 VERPE [7]: 6 g ai/ha

COC(=O)c1nc(-c2ccc(I)c(F)c2F)c(F)c(N)c1Cl [Compound 99]
pest or weed control at 35 g/ha [1]: 95 to 100%
pest or weed control at 70 g/ha [1]: 95 to 100%
GR50 VIOSS [1]: 9 g ai/ha
GR80 VIOSS [1]: 19 g ai/ha
pest or weed control at 35 g/ha [2]: 75 to 84%
pest or weed control at 70 g/ha [2]: 85 to 94%
GR50 KCHSC [2]: 9 g ai/ha
GR80 KCHSC [2]: 27 g ai/ha
pest or weed control at 35 g/ha [3]: 85 to 94%
pest or weed control at 70 g/ha [3]: 95 to 100%
GR20 HORSS [3]: 1 g ai/ha
pest or weed control at 35 g/ha [4]: 30 to 44%
pest or weed control at 70 g/ha [4]: 45 to 59%
GR50 MATSS [4]: 63 g ai/ha
GR80 MATSS [4]: >140 g ai/ha
pest or weed control at 35 g/ha [5]: 85 to 94%
pest or weed control at 70 g/ha [5]: 85 to 94%
GR20 TRZSS [5]: 1 g ai/ha
pest or weed control at 35 g/ha [6]: 75 to 84%
pest or weed control at 70 g/ha [6]: 75 to 84%
GR50 SASKR [6]: 10 g ai/ha
GR80 SASKR [6]: 48 g ai/ha
pest or weed control at 35 g/ha [7]: 95 to 100%
pest or weed control at 70 g/ha [7]: 95 to 100%
GR50 VERPE [7]: 8 g ai/ha
GR80 VERPE [7]: 17 g ai/ha

C#Cc1ccc(-c2nc(C(=O)O)c(Cl)c(N)c2F)c(F)c1 [Compound 108]
pest or weed control at 35 g/ha [1]: 30 to 44%
pest or weed control at 70 g/ha [1]: 30 to 44%
GR50 VIOSS [1]: 85 g ai/ha
GR80 VIOSS [1]: >140 g ai/ha
pest or weed control at 35 g/ha [2]: 0 to 29%
pest or weed control at 70 g/ha [2]: 0 to 29%
GR50 KCHSC [2]: >140 g ai/ha
GR80 KCHSC [2]: >140 g ai/ha
pest or weed control at 35 g/ha [3]: 30 to 44%
pest or weed control at 70 g/ha [3]: 45 to 59%
GR20 HORSS [3]: 16 g ai/ha
pest or weed control at 35 g/ha [4]: 30 to 44%
pest or weed control at 70 g/ha [4]: 60 to 74%
GR50 MATSS [4]: 58 g ai/ha
GR80 MATSS [4]: >140 g ai/ha
pest or weed control at 35 g/ha [5]: 75 to 84%
pest or weed control at 70 g/ha [5]: 75 to 84%
GR20 TRZSS [5]: 6 g ai/ha
pest or weed control at 35 g/ha [6]: 0 to 29%
pest or weed control at 70 g/ha [6]: 30 to 44%
GR50 SASKR [6]: 136 g ai/ha
GR80 SASKR [6]: >140 g ai/ha
pest or weed control at 35 g/ha [7]: 60 to 74%
pest or weed control at 70 g/ha [7]: 75 to 84%
GR50 VERPE [7]: 22 g ai/ha
GR80 VERPE [7]: 67 g ai/ha

COC(=O)c1nc(-c2ccc(Br)c(F)c2F)nc(N)c1OC [Compound 122, methyl 6-amino-2-(4-bromo-2,3-difluorophenyl)-5-methoxypyrimidine-4-carboxylate]
pest or weed control at 35 g/ha [1]: 95 to 100%
pest or weed control at 70 g/ha [1]: 95 to 100%
GR50 VIOSS [1]: 10 g ai/ha
GR80 VIOSS [1]: 21 g ai/ha
pest or weed control at 35 g/ha [2]: 85 to 94%
pest or weed control at 70 g/ha [2]: 95 to 100%
GR50 KCHSC [2]: 5 g ai/ha
GR80 KCHSC [2]: 14 g ai/ha
pest or weed control at 35 g/ha [3]: 60 to 74%
pest or weed control at 70 g/ha [3]: 85 to 94%
GR20 HORSS [3]: 3 g ai/ha
pest or weed control at 35 g/ha [4]: 0 to 29%
pest or weed control at 70 g/ha [4]: 30 to 44%
GR50 MATSS [4]: >140 g ai/ha
GR80 MATSS [4]: >140 g ai/ha
pest or weed control at 35 g/ha [5]: 75 to 84%
pest or weed control at 70 g/ha [5]: 85 to 94%
GR20 TRZSS [5]: 1 g ai/ha
pest or weed control at 35 g/ha [6]: 95 to 100%
pest or weed control at 70 g/ha [6]: 95 to 100%
GR50 SASKR [6]: <17.5 g ai/ha
GR80 SASKR [6]: <17.5 g ai/ha
pest or weed control at 35 g/ha [7]: 95 to 100%
pest or weed control at 70 g/ha [7]: 95 to 100%
GR50 VERPE [7]: 1 g ai/ha
GR80 VERPE [7]: 2 g ai/ha

COC(=O)c1nc(-c2ccc(I)c(F)c2F)cc(N)c1Cl [Compound 129, Methyl 4-amino-3-chloro-6-(2,3-difluoro-4-iodophenyl)picolinate]
pest or weed control at 35 g/ha [1]: 75 to 84%
pest or weed control at 70 g/ha [1]: 95 to 100%
GR50 VIOSS [1]: 17 g ai/ha
GR80 VIOSS [1]: 34 g ai/ha
pest or weed control at 35 g/ha [2]: 85 to 94%
pest or weed control at 70 g/ha [2]: 95 to 100%
GR50 KCHSC [2]: 7 g ai/ha
GR80 KCHSC [2]: 21 g ai/ha
pest or weed control at 35 g/ha [3]: 85 to 94%
pest or weed control at 70 g/ha [3]: 85 to 94%
GR20 HORSS [3]: 1 g ai/ha
pest or weed control at 35 g/ha [4]: 0 to 29%
pest or weed control at 70 g/ha [4]: 30 to 44%
GR50 MATSS [4]: 89 g ai/ha
GR80 MATSS [4]: 131 g ai/ha
pest or weed control at 35 g/ha [5]: 75 to 84%
pest or weed control at 70 g/ha [5]: 85 to 94%
GR20 TRZSS [5]: 1 g ai/ha
pest or weed control at 35 g/ha [6]: 75 to 84%
pest or weed control at 70 g/ha [6]: 85 to 94%
GR50 SASKR [6]: 6 g ai/ha
GR80 SASKR [6]: 41 g ai/ha
pest or weed control at 35 g/ha [7]: 30 to 44%
pest or weed control at 70 g/ha [7]: 45 to 59%
GR50 VERPE [7]: 92 g ai/ha
GR80 VERPE [7]: >140 g ai/ha

— US9113629B2, “4-amino-6-(4-substituted-phenyl)-picolinates and 6-amino-2-(4-substituted-phenyl)-pyrimidine-4-carboxylates and their use as herbicides” (DOW AGROSCIENCES LLC, priority 2013, dated 2015)
